Laboratory results: US7927634B2, “Compositions and methods for treating angiogenesis-related diseases, wounds and cosmetic use of components of Angelica sinensis, and methods of preparation thereof” (Sunny Biodiscovery, Inc., priority 2004, dated 2011)

Experiments:
bovine endothelial cells = test: Tridimensional tube formation assay, in vitro; format: cell-based; settings: bFGF positive control, 15 ng/ml or 10 ng/ml; 2-5 weeks; FIG. 3C
Method: FIG. 3. Tridimensional tube formation assay, in vitro. A: Capillary endothelial cells form a monolayer in the absence of a remodeling stimulus. B: SBD.4 (5 μg/ml, purified by HPLC) induces remodeling of the monolayer that culminates in a tridimensional network of capillary structures. […]
In this model, capillary-like structures are induced by plating bovine endothelial cells (about 8000 cells per well) in a 96 well tissue culture-treated plate (Costar) in DMEM supplemented with 5% calf serum (Hyclone, Logan, Utah), with or without an endothelial cell stimulatory growth factor. […] Cells grown without such factor form a monolayer (FIG. 3A).

[1] = test system: full thickness wounds in human skin graft on SCID mice; test: Wound closure in human skin/SCID mouse chimera model; format: in vivo, human skin grafted on SCID mice; settings: closed/total animals, ointment every two days, SBD.4 (HPLC-purified) in 2% CMC, becaplermin as Regranex
From the text: Human skin graft in severe combined immunodeficient (SCID) mice is a powerful model for evaluating the effect of wound-healing drug-candidates on full-thickness wounds (Juhasz et al., 1993). The wound model in human skin/SCID chimera features normal migration of neutrophils and macrophages to the wound bed, as well as normal expression of growth factors associated with wound-healing, and therefore provides a good approximation of human dermal wound-healing process (Matsumoto et al., 1997). The disadvantage of this model is that it is delicate to handle and time-consuming. The donor skin must be immediately placed on ice and taken to the lab, where a 10-hour grafting procedure follows. We used surgical waste skin obtained under informed consent from a patient undergoing abdominoplasty.
Skin was defatted (if it is not well defatted, the remaining adipose tissue easily undergoes necrosis, which interferes with graft taking. But on the other side, removing the underlying fat tissue too slowly or too zealously can also damage the skin and compromise the graft), and grafted (2.5×2.5 cm) on 15 SCID mice (Charles River Labs), using 10-12 stitches per graft. Here, the challenge is to suture the thick human skin with the much thinner rodent tissue.
After 6 weeks, when the graft anastomosed with the murine skin 8 mm (diameter) full thickness wounds were excised in the human skin. Mice received treatment (ointment every two days) of either becaplermin (Regranex, positive control), 2% carboxymethylcellulose (CMC, negative control) or SBD.4 in 2% CMC on the day of wounding and every second day thereafter. Initial wound closure (defined by the coverage of the base of the wound with bridging granular tissue and new epithelium) was assessed every 3 days.

[2] = test system: full thickness excisional wounds in genetically diabetic mice; test: Wound closure in genetically diabetic mice; format: in vivo, mouse; settings: for Becaplermin (% closure): median, becaplermin 5 ug/wound in CMC gel, n = 6; for Stimulation by becaplermin relative to Control (control = 1): ratio of median closure, becaplermin 5 ug/wound
From the text: We have chosen to use the genetically diabetic mice (13 week old female BKS Cg-m +/+ Lepr(db), stock # 642, Jackson Labs) because it is an optimal model reflecting the impaired wound healing in a segment of the population particularly vulnerable to chronic wounds—the diabetic patients. This genetically diabetic mouse model is well established as documented by over 50 publications (for example see Tsuboi et al., 1992). Many companies have also used it as a standard pre-clinical model, including Johnson & Johnson, which included it in the pre-clinical data package submitted to FDA as part of their IND application for becaplermin. […]
Twelve mice were divided in 2 groups and 8 mm (diameter) full thickness excisional wounds were performed under anesthesia on each side of the animal with a punch biopsy tool and covered by sterile gauze (occlusive dressings were not used as they considerably delay wound healing, according to the experience of the Principal Inventor and to the published reports (Lasa et al., 1993). The number of animals per group was based on the previous publications with this model; Jacobi et al., 2002). In Group 1 (the experimental treatment group), one wound on each animal was treated by 50 ul of “high” concentration of SBD.4 (10 mg per wound) and the other one by 50 ul of “low” concentration of SBD.4 (2 mg per wound). In Group 2 (negative control), both wounds were treated by PBS (phosphate buffered saline). Treatments were applied on the first day and every second day thereafter. Wound surface were measured every second day. Wound closure was determined by the following formula: percent closure={(area on day 0−open area)/area on day 0}×100. Wounds were considered closed if moist granulation tissue was no longer apparent, and the wound appeared covered with new epithelium.
Twelve mice were divided in two groups and two wounds per mouse were effectuated as in Example 5. In order to exclude the possibility of mouse-to-mouse variability in wound healing, in this experiment every mouse was treated by the test sample on one wound and by PBS (negative control) on another wound. Thus, one group of 6 mice was treated with 50 ul of SBD.4 (2 mg/wound) on one wound, and by 50 ul of PBS on the other wound, while the second group of 6 mice was treated with becaplermin (positive control; 5 ug in 50 ul CMC—carboxymethylcellulose—gel) on one and PBS on another wound. The concentration of becaplermin was based on the dose used by Johnson & Johnson in their pre-clinical studies (2) and on published studies with PDGF-B, in the db/db model (Greenhalgh et al., 1990).
Treatments were applied on the first day and every second day thereafter. Wound surface were measured every second day. Wound closure for each wound was determined by the formula: percent closure={(area on day 0−open area)/area on day 0}×100. Wounds were considered closed if moist granulation tissue was no longer apparent, and the wound appeared covered with new epithelium. The dynamics of wound closure for the 2 groups is plotted on FIG. 6 (means) and Table II (medians).

bFGF: basic fibroblast growth factor, potent angiogenesis stimulator used as positive control
induction of capillary-like structures (remodeling response) (bovine endothelial cells): form capillary-like structures

Becaplermin: becaplermin (Regranex, Johnson & Johnson), positive control for wound healing
# animals showing initial wound closure ([1]; Day 3): 0/5
# animals showing initial wound closure ([1]; Day 6): 1/5
# animals showing initial wound closure ([1]; Day 9): 2/4
# animals showing initial wound closure ([1]; Day 12): 4/4
# animals showing initial wound closure ([1]; Day 16): 4/4
wound closure versus PBS ([2]; Example 6, becaplermin 5 ug in 50 ul CMC gel per wound, FIG. 6 means, one-way ANOVA): not meaningfully different from the control
Becaplermin (% closure) ([2]; Example 6, day 1): 0.0%
Becaplermin (% closure) ([2]; Example 6, day 3): 1.7%
Becaplermin (% closure) ([2]; Example 6, day 5): 11.9%
Becaplermin (% closure) ([2]; Example 6, day 7): 41.2%
Becaplermin (% closure) ([2]; Example 6, day 9): 65.8%
Becaplermin (% closure) ([2]; Example 6, day 11): 86.7%
Stimulation by becaplermin relative to Control (control = 1) ([2]; day 3): 1.1
Stimulation by becaplermin relative to Control (control = 1) ([2]; day 5): 0.4
Stimulation by becaplermin relative to Control (control = 1) ([2]; day 7): 1.1
Stimulation by becaplermin relative to Control (control = 1) ([2]; day 9): 1.3
Stimulation by becaplermin relative to Control (control = 1) ([2]; day 11): 1.3
